Assay [1] concerns the target T1, cannabinoid receptor binding sites (CP 55940 binding sites) (Rattus norvegicus, UniProt P20272).
T1 construct: from tissue; host or cells: rat brain membranes (inferred from the cited Devane et al. 1988)
The assay can be described thus: CP 55940 binding assay (given "CP 55490 [sic] binding assay" in the source). The text has this: (§1) Med. Assoc. 217, 1392 (1971)]. […] Opth. 7, 921-923 (1975); Green and Pederson, Effect of delta-9 Tetrahydrocannabinol on Aqueous Dynamics and Ciliary Body Permeability in the Rabbit Eye., Exptl. Eye Research 15, 499-507 (1973); Colasanti, Craig and Allara, Intraocular Pressure, Ocular Toxicity and Neurotoxicity after Administration of Cannabinol or Cannabigerol, Exptl. Eye Research 39, 252-259 (1984)]. Similarly, synthetic cannabinoids also reduce intraocular pressure [Green, Symunds, Oliver and Elijah, Intraocular Pressure Following Systemic Administration of Cannabinoids., Curr. Eye Research 2, 247-253 (1982); Tiedeman, Shields, Weber, Crow, Coccetto, Harris and Howes, Ophthalmology, 88, 270-277 (1981); Colasanti et al., supra]. […] 34, 605-613 (1988)]. Natural and synthetic cannabinoids and representative examples of the compounds of the present invention, bind to CP 55940 binding sites. […] It is believed that agonist activity at the cannabinoid receptor mediates the anti-glaucoma actions of cannabinoids, and that agonist activity at this receptor correlates with ocular pressure lowering actions in man.
The 3-R3 -4-arylcarbonyl-1-[(4-morpholinyl)-lower-alkyl]-1H-indoles of formula I were tested in the mouse vas deferens test and the CP 55490 binding assay. […]

Another assay addresses T2, cannabinoid receptor (Mus musculus, UniProt P47746).
T2 construct: mouse vasa deferentia (MVD) preparation in vitro; from tissue; host or cells: mouse vas deferens
The assay can be described thus: mouse vas deferens (MVD) test, inhibition of contractions in vitro. The following applies: considered active at IC50 of 5.0 μM or less, read-out: MVD IC50 (inhibitory concentration which produces 50% of the maximum response). The class given is cell-based.
Text: as §1
The 3-R3 -4-arylcarbonyl-1-[(4-morpholinyl)-lower-alkyl]-1H-indoles of formula I were tested in the mouse vas deferens test and the CP 55490 binding assay. The results, expressed as the IC50 in μM (the inhibitory concentration which produces 50% of the maximum response), are given in the following table, the compounds being identified by the example number above where their preparations are described.

Assay [2] addresses T1, cannabinoid receptor binding sites (CP 55940 binding sites). Conditions: result in words, literature (Devane et al.), radio-labelled CP 55940; natural and synthetic cannabinoids; cited from earlier work.
The test system of the next assay is intraocular pressure. The following applies: topical application or systemic injection; literature; cited from earlier work.

Structures can show the parent of a compound that is named as a salt.

T1 sequence (P20272 whole entry): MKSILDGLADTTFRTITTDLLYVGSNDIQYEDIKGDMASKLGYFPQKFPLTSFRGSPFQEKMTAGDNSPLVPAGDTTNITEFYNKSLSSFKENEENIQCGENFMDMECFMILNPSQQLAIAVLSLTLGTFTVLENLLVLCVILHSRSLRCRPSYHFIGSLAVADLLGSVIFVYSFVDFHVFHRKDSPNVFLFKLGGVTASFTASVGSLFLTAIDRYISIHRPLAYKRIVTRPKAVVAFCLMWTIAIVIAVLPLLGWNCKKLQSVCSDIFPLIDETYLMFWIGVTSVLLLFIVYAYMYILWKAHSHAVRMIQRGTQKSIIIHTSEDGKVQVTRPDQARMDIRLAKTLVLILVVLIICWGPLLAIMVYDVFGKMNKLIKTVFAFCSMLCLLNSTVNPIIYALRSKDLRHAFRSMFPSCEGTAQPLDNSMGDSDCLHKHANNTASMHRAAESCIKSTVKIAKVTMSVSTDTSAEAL
T2 sequence (P47746 whole entry): as the sequence (P20272 whole entry) above, with E95D counted along it

For the compound `O=C(c1ccc2ccccc2c1)c1cccc2c1ccn2CCN1CCOCC1` [Example 1D, 4-(2-naphthylcarbonyl)-1-[2-(4-morpholinyl)ethyl]-1H-indolehydrochloride], the results for the IC50 (in assay [1]; at cannabinoid receptor) were 363 nM and 163 nM, respectively.

As for `CCCCCCC(C)(C)c1ccc([C@@H]2C[C@H](O)CC[C@H]2CCCO)c(O)c1` [CP 55940, 4-(1,1-dimethylheptyl)-2,3'-dihydroxy-6'alpha-(3-hydroxypropyl)-1',2',3',4',5',6'-hexahydrobiphenyl], in assay [2], the “binding to CP 55940 binding sites / cannabinoid receptor” value was “binds in a specific and saturable manner”.

Consider `O=C(c1cccc2ccccc12)c1cccc2c1ccn2CCN1CCOCC1` [Example 1C, 1-[2-(4-morpholinyl)ethyl]-4-(1-naphthylcarbonyl)-1H-indole p-toluenesulfonate hydrate 3:1], for which the IC50 at cannabinoid receptor was found to be 3 nM.

As to `COc1ccc(C(=O)c2cccc3c2ccn3CCN2CCOCC2)cc1` [Example 1A, 4-(4-methoxybenzoyl)-1-[2-(4-morpholinyl)ethyl]-1H-indole hydrochloride], the IC50 in assay [1] came out at 444 nM; at cannabinoid receptor, 76 nM.

As for `CCCCCc1cc(O)c2c(c1)OC(C)(C)C1CCC(C)=CC21` (single isomer, unassigned) [delta-9 tetrahydrocannabinol], the intraocular pressure entry in the assay on intraocular pressure is “reduces intraocular pressure”.

Turning to `COc1ccc(C(=O)c2cccc3c2ccn3CCCN2CCOCC2)cc1` [Example 1B, 4-(4-methoxybenzoyl)-1-[3-(4-morpholinyl)propyl]-1H-indole hydrochloride], the IC50 on cannabinoid receptor is 33 nM.

In the case of `COc1ccc(C(=O)c2cccc3c2c(C)cn3CCN2CCOCC2)cc1` [Example 1E, 4-(4-methoxybenzoyl)-3-methyl-1-[2-(4-morpholinyl)ethyl)-1H-indole hydrochloride], the IC50 at cannabinoid receptor was found to be 5000 nM.
